{
  "source": "patent US9827246B2",
  "about": "“Biomarkers of response to NAE inhibitors” (Millennium Pharmaceuticals, Inc., priority 2011, dated 2017)",
  "format_in_all_cases": "cell-based",
  "key": {"NCI-H520": {"test_system": "NCI-H520", "assay": "Panel 2 high-content cell screen", "conditions": "Homo sapiens, 72 h, cell number", "procedure": "(§1) To support clinical development and identify potential biomarkers of tumor sensitivity or resistance, two large cancer cell line panels (Panel 1, N=653 (McDermott et al. (2007) PNAS 104:19936-19941); Panel 2, N=240 (O'Day et al. (2010) Fourth AACR International Conference on Molecular Diagnostics in Cancer Therapeutic Development)) were treated with MLN4924 and cell viability data (IC50, EC50, and POC—Percentage of Control) were generated.\n(§2) Panel 2 (Ricerca Biosciences, Inc., Bothell, Wash.). MLN4924 was added in half-log dilutions for 10 concentrations and treated for 72 hours. High-content cell screening by fluorescence microscopy included image analysis to generate several types of data. Results included EC50 values (after measurement of cell numbers, the EC50 concentration was calculated from the inflection point of a curve of percent of control (POC) against log of MLN4924 concentration), IC50 values (from the POC-log MLN4924 plot, IC50 is the concentration at 50% maximal possible response), apoptosis (measurement of activation of caspase 3 plotted against log of MLN4924 concentration, determined as the concentration for >5 fold induction), and mitotic activity (determined by measuring the fold increase of phospho-histone 3). A comparison of EC50 to IC50 (FIG. 3) allowed assignment of cell lines to sensitive, insensitive or resistant. Final identification of a cell line as sensitive or resistant was based on the EC50 values. The cutoff for sensitivity is a median EC50 of less than the median value of all POC's recorded in the panel (<0.36), borderline sensitivity was associated with median EC50 of 0.36 to 1.67 and insensitive or resistant cell lines were identified by EC50 greater than the 3rd quartile of all POC's in the panel (>1.67)."}, "SW 1116": {"test_system": "SW 1116", "assay": "Panel 2 high-content cell screen", "conditions": "Homo sapiens, 72 h, cell number", "procedure": "as §1, §2"}, "SK-OV-3": {"test_system": "SK-OV-3", "assay": "Panel 2 high-content cell screen", "conditions": "Homo sapiens, 72 h, cell number", "procedure": "as §1, §2"}, "[1]": {"test_system": "p21 in TP53−/− HCT-116 cells", "assay": "Western blots of p21"}, "BxPC-3": {"test_system": "BxPC-3", "assay": "Panel 1 cell viability screen", "conditions": "SMAD4 mutant", "procedure": "as §1\n(§3) Panel 1 (McDermott et al., supra). The cell lines were exposed to three MLN4924 concentrations (20 nM, 200 nM, and 2 μM) for 72 hours. Viability, i.e., cell number, was quantified by measuring fluorescence of a cell-permeant nucleic acid stain. Mean of triplicate values for each sample were taken and compared to DMSO control to calculate percentage of control. In the results, control or no activity value is given a value of about 1, sensitivity is indicated by a value less than 1, with 0 as death of the entire cell population and resistance indicated by a value greater than 1. A continuum of viability values was obtained for each concentration, so some values were selected as cut-offs for final determination of sensitivity or resistance. For example, median POC values of less than the median value of all POC's recorded in the panel (<0.34) indicated sensitivity, values of 0.34 to 0.75 indicated borderline sensitivity, values greater than the 3rd quartile of all POC's in the panel (>0.75) insensitivity or resistance. […] Final judgment of cell line as sensitive, insensitive or resistant was determined by its viability at 2 μM."}, "SW 1463": {"test_system": "SW 1463", "assay": "Panel 1 cell viability screen", "conditions": "SW1463; FBXW7 mutant", "procedure": "as §1, §3"}, "PANC-08-13": {"test_system": "PANC-08-13", "assay": "Panel 1 cell viability screen", "conditions": "SMAD4 mutant", "procedure": "as §1, §3"}, "RCM-1": {"test_system": "RCM-1", "assay": "Panel 1 cell viability screen", "conditions": "FBXW7 mutant", "procedure": "as §1, §3"}, "MDA-MB-231": {"test_system": "MDA-MB-231", "assay": "Panel 1 cell viability screen", "conditions": "NF2 mutant", "procedure": "as §1, §3"}, "UMC-11": {"test_system": "UMC-11", "assay": "Panel 1 cell viability screen", "conditions": "SMAD4 mutant", "procedure": "as §1, §3"}, "COCM1": {"test_system": "COCM1", "assay": "Panel 1 cell viability screen", "conditions": "CoCM-1; SMAD4 mutant", "procedure": "as §1, §3"}, "MKN1": {"test_system": "MKN1", "assay": "Panel 1 cell viability screen", "conditions": "FBXW7 mutant", "procedure": "as §1, §3"}, "CAPAN-1": {"test_system": "CAPAN-1", "assay": "Panel 1 cell viability screen", "conditions": "SMAD4 mutant", "procedure": "as §1, §3"}, "HT29": {"test_system": "HT29", "assay": "Panel 1 cell viability screen", "conditions": "HT-29; SMAD4 mutant", "procedure": "as §1, §3"}, "SW620": {"test_system": "SW620", "assay": "Panel 1 cell viability screen", "conditions": "SMAD4 mutant", "procedure": "as §1, §3"}, "COLO-678": {"test_system": "COLO-678", "assay": "Panel 1 cell viability screen", "conditions": "SMAD4 mutant", "procedure": "as §1, §3"}, "MKN45": {"test_system": "MKN45", "assay": "Panel 1 cell viability screen", "conditions": "SMAD4 mutant", "procedure": "as §1, §3"}, "CFPAC-1": {"test_system": "CFPAC-1", "assay": "Panel 1 cell viability screen", "conditions": "SMAD4 mutant", "procedure": "as §1, §3"}, "AsPC-1": {"test_system": "AsPC-1", "assay": "Panel 1 cell viability screen", "conditions": "FBXW7 mutant", "procedure": "as §1, §3"}, "S-117": {"test_system": "S-117", "assay": "Panel 1 cell viability screen", "conditions": "NF2 mutant", "procedure": "as §1, §3"}},
  "note": "pEC50: −log10 of the molar value.",
  "data": [
    {"molecule": "NS(=O)(=O)OC[C@@H]1C[C@@H](n2ccc3c(N[C@H]4CCc5ccccc54)ncnc32)C[C@@H]1O", "note": "[MLN4924, ((1S,2S,4R)-4-{4-[(1S)-2,3-dihydro-1H-inden-1-ylamino]-7H-pyrrolo[2,3-d]pyrimidin-7-yl}-2-hydroxycyclopentyl)methyl sulphamate]", "values": [
      {"measurement": "pEC50", "setting": "NCI-H520", "result": 6.58},
      {"measurement": "pEC50", "setting": "SW 1116", "result": "≤ 5.00"},
      {"measurement": "pEC50", "setting": "SK-OV-3", "result": "≤ 5.00"},
      {"measurement": "p21 (Western blots)", "setting": "[1]", "result": "still up-regulated"},
      {"measurement": "Phenotype", "setting": "BxPC-3", "result": "insensitive"},
      {"measurement": "Phenotype", "setting": "SW 1463", "result": "resistant"},
      {"measurement": "Phenotype", "setting": "PANC-08-13", "result": "resistant"},
      {"measurement": "Phenotype", "setting": "RCM-1", "result": "resistant"},
      {"measurement": "Phenotype", "setting": "MDA-MB-231", "result": "insensitive"},
      {"measurement": "Phenotype", "setting": "UMC-11", "result": "insensitive"},
      {"measurement": "Phenotype", "setting": "COCM1", "result": "resistant"},
      {"measurement": "Phenotype", "setting": "MKN1", "result": "insensitive"},
      {"measurement": "Phenotype", "setting": "CAPAN-1", "result": "sensitive?"},
      {"measurement": "Phenotype", "setting": "HT29", "result": "insensitive"},
      {"measurement": "Phenotype", "setting": "SW620", "result": "insensitive"},
      {"measurement": "Phenotype", "setting": "COLO-678", "result": "resistant"},
      {"measurement": "Phenotype", "setting": "MKN45", "result": "insensitive"},
      {"measurement": "Phenotype", "setting": "CFPAC-1", "result": "sensitive?"},
      {"measurement": "Phenotype", "setting": "AsPC-1", "result": "resistant"},
      {"measurement": "Phenotype", "setting": "S-117", "result": "resistant"}
    ]}
  ]
}
